Two compounds from patent US20140335050A1, “METHODS, COMPOSITIONS, AND KITS FOR THE TREATMENT OF CANCER” (The General Hospital Corporation, priority 2011, published 2014) can be followed below.

Format in all cases: cell-based, human
For assay [1], the system named is MU89 MART::EGFP cell line. The assay can be described thus: Melan-A/MART-1 promoter-driven EGFP reporter, kinetics by flow cytometry. As to conditions: MU89 MART::EGFP (FIG. 11). The method, then:
FIG. 11 is a set of four graphs showing the kinetics of Melan-A/MART-1 increase. […] The same number of cells per well were plated in each well of a 24 well plate and drug was added on day zero. Each day cells were collected and assayed for that time point. Control untreated cells are shown for comparison. The data are from one representative experiment.
A kinetic analysis was performed to determine the effect of Hsp90 inhibition on Melan-A/MART-1 promoter activity over time. […] Reporter activity increases steadily for the first 72 hours of Hsp90 inhibition, and then plateaus. The need for continued presence of Hsp90 inhibitors in order for them to be effective (i.e. whether the drug can be removed after short exposure, or whether it must it be continually present) was assessed. […] To achieve full signal enhancement, it is desirable to retain the drug for at least 48 hours, after which the effect remains constant or slightly decreases.
The generation and application of EGFP reporter cells has been previously described. Briefly, a 1200 base pair human genomic DNA segment encompassing the Melan-A/MART-1 promoter was used to generate a construct driving expression of the EGFP reporter gene. Stable transfectants with this construct were generated in the low-antigen cell line A375 and the high-antigen line MM96L+ and MU89. The EGFP expression response patterns of these cells to IFN-beta and MAP kinase inhibitors recapitulates the antigen up-regulation of endogenous Melan-A/MART-1 induced by these agents.
(§1) Intracellular staining and flow cytometric analyses of cytoplasmic Melan-A/MART-1, and gp100 expression were performed as described previously. Cells were fixed with 1% formaldehyde, permeabilized with 0.1% saponin, stained with monoclonal antibodies to melanocyte antigens. Antibodies were obtained with specificity for: Melan-A/MART-1 from Vector Labs (Burlingame, Calif.); gp100/HMB45 from DakoCytomation (Carpinteria, Calif.) and then visualized with goat anti-mouse FITC-conjugated secondary antibody from Invitrogen (Frederick, Md.). The level of EGFP was determined by flow cytometry of unfixed cells washed and resuspended in 1×PBS. Surface staining of MHC Class I was carried out using the antibody W6/32 on cells harvested with Cell Stripper from MediaTech Inc. (Manassas, Va.) and carried out on ice.
(In general: In flow cytometry, cells or beads pass a laser one at a time.)

Assay [2] has as its system MU89 melanoma cell line. As to the kind of experiment: Antibody staining and flow cytometry (intracellular Melan-A/MART-1, gp100, TRP-2; surface MHC Class I/II). As to the method: (§2) Cells were fixed with 1% formaldehyde, permeabilized with 0.1% saponin, stained with monoclonal antibodies to melanocyte antigens. Antibodies were obtained with specificity for: MART-1 from Vector Labs (Burlingame, Calif.); gp100 HMB45 from DakoCytomation (Carpinteria, Calif.) and then visualized with goat anti-mouse FITC-conjugated secondary antibody from Invitrogen (Fredrick, Md.). The level of EGFP was determined by flow cytometry of unfixed cells that were washed and resuspended in 1×PBS.
(§3) Cells were plated at a density of 1×10^5 in 1 ml of medium in a 24-well plate and cultured for varying times as indicated in results. […] After incubation, cells were collected by trypsinization and then evaluated by flow cytometry.
as §1
(§4) Cell were seeded at 1×10^6 cells in a T25 flask with 10 ml of media for the 4 day IFN-beta pre-treatments. Cells were then harvested and plated in 24 well plate at 1×10^5 cells per well in 1 ml of media for 3 day treatments.
(§5) For surface staining of HLA Class I and II antigens, cells were harvested using CellStripper™ from Mediatech (Manassas, Va.). All staining steps were performed on ice. Following a first incubation with antibody to Class I (W6/32) or Class II (L243) for 30 minutes. Stained cells were washed twice with cold PBS and then stained with a goat anti-mouse FITC secondary antibody to allow for quantitative analysis by flow cytometry. For evaluation of cytoplasmic antigens, including Melan-A/MART-1 and gp100, cells were first fixed in paraformaldehyde and permeabilized with saponin as previously described. Staining for cytoplasmic antigens was carried out at room temperature (22° C.).

The test system of assay [3] is U-118 MG glioma cell line. As to the kind of experiment: Antibody staining and flow cytometry (intracellular gp100; surface MHC Class I/II). Conditions: U-118 MG; 3 days; IFN-beta 5000 Units/ml, 17-AEP 1.0, PU-H71 0.3, CCT018159 10.0 μg/ml. As to the method:
as §2, §3, §1, §4, §5

[4] abbreviates: MU89, 3 days, IFN-beta 5000 Units/ml, 17-AEP 1.0, PU-H71 0.3, CCT018159 10.0 μg/ml.
[5] abbreviates: MU89, 4 day IFN-β pre-treatment (5000 Units/ml), then 3 days with fresh IFN-β and the labelled HSP90 inhibitor (label IFN-β: no inhibitor), 17-AEP 1, PU-H71 0.3, CCT018159 10 mg/ml.
Where [6] appears, read: MU89, 4 day IFN-β pre-treatment (5000 Units/ml), then 3 days without IFN-β with the labelled HSP90 inhibitor (label IFN-β: no inhibitor), 17-AEP 1, PU-H71 0.3, CCT018159 10 mg/ml.
Setting [7] is: MU89, single agent for 3 days, no IFN-β pre-treatment, IFN-β 5000 Units/ml.
Where [8] appears, read: MU89, three days, IFN-β 5000 Units/ml.
The mark [9] stands for this setting: MU89 (BRAF M/WT, NRAS WT), 3 days, 17-AEP 0.50, CCT018159 10.00, PU-H71 0.30 μg/ml.

Regarding `CO[C@H]1/C=C\C=C(/C)C(=O)NC2=CC(=O)C(NCCN3CCCC3)=C(C[C@@H](C)C[C@H](OC)[C@H](O)[C@@H](C)/C=C(\C)[C@@H]1OC(N)=O)C2=O` [17-AEP], the “Time at which the fluorescent reporter signal is significantly enhanced (as early as)” value in assay [1] was 2 days. In addition, the entries for the “Class I, geometric mean of surface staining (W6/32)” value in assay [2] (setting [4]) and in assay [3] were 54 and 117, respectively. In addition, the “MART-1, geometric mean of intracellular staining” value in assay [2] (setting [4]) stood at 130. Moreover, in assay [2] (setting [4]), the “TRP-2, geometric mean of intracellular staining” value amounted to 144. The “gp100, geometric mean of intracellular staining” value (“gp100, geometric mean” for short) in assay [2] (setting [4]) is recorded as 342; in assay [3], 61. For the same compound, the “MHC Class I, geometric mean of surface staining (W6/32)” value (from here on “MHC Class I, geometric mean”) turned out to be 227 in assay [2] (setting [5]), 86 in assay [2] (setting [6]), 84 in assay [2] (setting [7]) and 54 in assay [2] (setting [8]).

As to `CCc1cc(-c2n[nH]c(C)c2-c2ccc3c(c2)OCCO3)c(O)cc1O` [CCT018159], the “Time at which the fluorescent reporter signal is significantly enhanced (as early as)” value in assay [1] is 2 days. In assay [2] (setting [9]), the “HMB45, level of induction relative to untreated control cells” value amounted to 3.92 and the “MART-1, level of induction relative to untreated control cells” value is 3.22. Besides, in assay [2] (setting [4]), the “Class I, fold increase relative to untreated control” value is 4.2 fold; the “Class I, geometric mean of surface staining (W6/32)” value stood at 75; the “MART-1, fold increase relative to untreated control” value was found to be 3.0 fold; the “MART-1, geometric mean of intracellular staining” value came to 99. Also, in assay [2] (setting [4]), the “TRP-2, fold increase relative to untreated control” value stood at 2.7 fold; the “TRP-2, geometric mean of intracellular staining” value is on record as 252; the “gp100, fold increase relative to untreated control” value was 2.2 fold; the “gp100, geometric mean” value was 273. In addition, the “MHC Class I, geometric mean” value in assay [2] (setting [5]) was 281. In assay [2] (setting [6]), the “MHC Class I, geometric mean” value is listed as 232. Further, the “MHC Class I, geometric mean” value in assay [2] (setting [7]) came out at 73. Besides, the “MHC Class I, geometric mean” value in assay [2] (setting [8]) turned out to be 75. In assay [3], the “Class I, fold increase relative to untreated control” value stood at 2.0 fold; the “Class I, geometric mean of surface staining (W6/32)” value was determined as 101; the “gp100, fold increase relative to untreated control” value was 1.4 fold; the “gp100, geometric mean” value is on record as 83.
